What is called IC50 is the concentration that inhibits the measured activity by half. In general, Ki refers to the equilibrium dissociation constant of an inhibitor or competing ligand from its target. A lower Ki goes with tighter binding. By melting point is commonly meant the temperature of the solid-liquid transition.

Series [1] concerns the target T1, human MAO A (Homo sapiens, UniProt P21397).
T1 construct: purchased Sigma Aldrich M7316
T1 sequence (P21397 1-527): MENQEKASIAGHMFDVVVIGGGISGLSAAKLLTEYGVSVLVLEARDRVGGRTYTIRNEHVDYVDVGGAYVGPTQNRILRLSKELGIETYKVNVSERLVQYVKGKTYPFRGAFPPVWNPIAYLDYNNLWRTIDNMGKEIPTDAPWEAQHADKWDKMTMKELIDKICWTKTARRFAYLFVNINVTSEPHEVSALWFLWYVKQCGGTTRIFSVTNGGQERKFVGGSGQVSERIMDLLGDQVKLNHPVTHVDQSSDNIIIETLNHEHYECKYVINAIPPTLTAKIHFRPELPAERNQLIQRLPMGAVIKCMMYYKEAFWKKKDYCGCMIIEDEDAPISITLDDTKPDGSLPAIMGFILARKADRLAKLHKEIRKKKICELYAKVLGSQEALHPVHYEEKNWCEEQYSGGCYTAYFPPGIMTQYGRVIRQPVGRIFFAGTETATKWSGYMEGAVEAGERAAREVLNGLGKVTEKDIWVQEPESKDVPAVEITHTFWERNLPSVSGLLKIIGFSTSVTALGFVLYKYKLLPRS
Briefly: hMAO A inhibition, fluorometric Amplex Red MAO assay. The format is biochemical. The following applies: for IC50: mean ± SEM, p-tyramine 200 μM; for inhibition at 10 µM: percent of inhibition at 10 μM, mean of two independent experiments, read-out: MAO A (%Inh.). As to the method: Inhibitory potency of compounds on MAO isoenzymes were carried out by a fluorometric method with a commercial Amplex™ Red Monoamine Oxidase Assay Kit (ThermoFisher Scientific A12214, Waltham, MA, USA) as described previously. For all tests, recombinant human MAO B and MAO A (from Sigma AldrichM7441 and M7316, Darmstadt, Germany) were used. Inhibitors’ activity was measured in the presence of p-tyramine (200 μM).
[…] […] All calculations were made in Microsoft Excel and GraphPadPrism software. All experiments were performed in duplicate, and data are expressed as mean ± SEM of 2–5 independent experiments.

In series [2] the target is T2, human histamine H3 receptor (hH3R) (Homo sapiens, UniProt Q9Y5N1).
T2 construct: expressed in transfected cells
Briefly: radioligand displacement binding assay, [3H]Nα-methylhistamine, HEK293 cells stably expressing hH3R. To be noted: HEK293 cells stably expressing human H3R, mean (95% CI). As to the method: [^3H]N^α-methylhistamine was used as a radioligand.
The radioligand displacement binding assay was carried out in HEK-293 cells stably expressing the recombinant hH3R as described by Kottke et al. with slight modifications. […] Obtained data from at least three experiments (in at least duplicates) were analyzed with GraphPad Prism 6.1 (San Diego, CA, USA) using nonlinear regression (one-site competition on logarithmic scale), and Ki values were transformed from IC50 according to Cheng-Prusoff. Statistical analysis was performed on −log Ki values.
On the technique in general: In a radioligand displacement assay an active substance lowers the binding of a labelled ligand.

Series [3] addresses T3, hMAO B (Homo sapiens, UniProt P27338).
T3 construct: purchased Sigma Aldrich M7441
T3 sequence (P27338 1-520): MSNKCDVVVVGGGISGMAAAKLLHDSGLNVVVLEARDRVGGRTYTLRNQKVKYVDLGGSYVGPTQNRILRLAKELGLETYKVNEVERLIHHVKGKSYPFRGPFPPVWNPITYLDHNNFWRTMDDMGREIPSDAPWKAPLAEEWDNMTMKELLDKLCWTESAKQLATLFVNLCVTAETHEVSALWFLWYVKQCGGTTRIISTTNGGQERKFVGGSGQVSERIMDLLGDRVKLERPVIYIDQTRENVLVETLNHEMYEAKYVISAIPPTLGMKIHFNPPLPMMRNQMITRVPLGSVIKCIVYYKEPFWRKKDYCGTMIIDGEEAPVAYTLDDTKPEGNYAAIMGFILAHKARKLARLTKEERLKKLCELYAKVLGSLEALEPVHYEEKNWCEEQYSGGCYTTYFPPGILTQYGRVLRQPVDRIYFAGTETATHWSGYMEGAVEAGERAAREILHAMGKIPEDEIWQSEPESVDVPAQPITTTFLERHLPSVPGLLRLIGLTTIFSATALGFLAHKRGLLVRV
Briefly: hMAO B inhibition, fluorometric Amplex Red MAO assay. In kind it is biochemical. The following applies: mean ± SEM of 2-5 independent experiments; p-tyramine 200 μM.

Series [4] deals with T3, hMAO B. Briefly: hMAO B reversibility studies. In kind it is biochemical. The following applies: inhibitor at IC80; for effect of 30 min preincubation with enzyme on hMAO B inhibition: with vs without preincubation. As to the method:
Reversibility of MAO B inhibitors was tested as described previously with slight modification. Two experiments were performed simultaneously. In the first experiment, inhibitors (in concentrations corresponding to their IC80 values) were incubated with the enzyme and p-tyramine (10 μM) for 22 min (measuring fluorescence every two minutes).

T2 sequence (Q9Y5N1 whole entry): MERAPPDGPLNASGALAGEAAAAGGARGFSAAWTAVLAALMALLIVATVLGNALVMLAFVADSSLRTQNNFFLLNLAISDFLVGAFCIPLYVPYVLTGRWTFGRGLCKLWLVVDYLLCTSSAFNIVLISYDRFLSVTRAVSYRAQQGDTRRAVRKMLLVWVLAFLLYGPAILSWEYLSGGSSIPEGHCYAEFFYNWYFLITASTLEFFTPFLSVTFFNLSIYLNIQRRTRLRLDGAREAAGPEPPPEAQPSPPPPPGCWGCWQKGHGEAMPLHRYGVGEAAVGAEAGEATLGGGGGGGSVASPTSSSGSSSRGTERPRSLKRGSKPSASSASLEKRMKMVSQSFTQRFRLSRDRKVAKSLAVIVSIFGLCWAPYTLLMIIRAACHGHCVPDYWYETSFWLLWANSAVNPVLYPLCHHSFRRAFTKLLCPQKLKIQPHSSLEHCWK

In turn, `CC1(C)CCCN(CCCCCCOc2ccc(C(C)(C)C)cc2)C1.O=C(O)C(=O)O` [Compound 19, 1-(6-(4-tert-Butylphenoxy)hexyl)-3,3-dimethylpiperidine hydrogen oxalate] yielded a melting point of 122 to 125 °C. In addition, in series [1], the IC50 was over 10 µM and the inhibition at 10 µM is 24%. Besides, the Ki in series [2] worked out at 2580 nM.

Consider `CC1CCCCN1CCCCOc1ccc(C(C)(C)C)cc1.O=C(O)C(=O)O` (centres unmarked) [Compound 10, 1-(4-(4-tert-Butylphenoxy)butyl)-2-methylpiperidine hydrogen oxalate], for which the melting point is 107 to 110 °C. Besides, the IC50 in series [1] was over 10 µM. The molecule also registered a Ki in series [2] of 153 nM. In series [3], half-maximal inhibition (IC50) required 0.475 ± 0.038 µM.

In turn, `CC(C)(C)c1ccc(OCCCN2CCCC2)cc1.O=C(O)C(=O)O` [Compound 5, 1-(3-(4-tert-Butylphenoxy)propyl)pyrrolidine hydrogen oxalate] came in with a melting point of 147 to 149 °C. Also, the Ki in series [2] stood at 371 nM. Besides, the “effect of 30 min preincubation with enzyme on hMAO B inhibition” value in series [4] is “did not show differences between experiments with and without the preincubation”. For the same molecule, in series [4] (without preincubation, compared with safinamide and rasagiline), the “type of hMAO B inhibition (reversible or irreversible)” value is given as “reversible”. Further, the IC50 in series [3] was 0.0027 ± 0.0004 µM.

As to `CC1CCCN(CCCOc2ccc(C(C)(C)C)cc2)C1.O=C(O)C(=O)O` (centres unmarked) [Compound 12, 1-(3-(4-tert-Butylphenoxy)propyl)-3-methylpiperidine hydrogen oxalate], the melting point lay within 141 to 143 °C. This molecule showed an IC50 in series [1] of over 10 µM. The molecule further displayed a Ki in series [2] of 98 nM. The molecule also showed an IC50 in series [3] of 0.117 ± 0.012 µM.

On to `CC(C)(C)c1ccc(OCCCCN2CCCCC2)cc1.O=C(O)C(=O)O` [Compound 6, 1-(4-(4-tert-Butylphenoxy)butyl)piperidine hydrogen oxalate], for which the melting point lay within 150 to 152 °C. The IC50 in series [1] is over 10 µM. In series [2], this molecule gave a Ki of 309 nM. Also, the IC50 in series [3] is 0.29 ± 0.007 µM.

Molecule `CC1(C)CCCN(CCCOc2ccc(C(C)(C)C)cc2)C1.O=C(O)C(=O)O` [Compound 16, 1-(3-(4-tert-Butylphenoxy)propyl)-3,3-dimethylpiperidine hydrogen oxalate] displayed a melting point of 183 to 186 °C. In series [1], this molecule displayed an IC50 of over 10 µM. In addition, in series [2], the Ki came out at 1620 nM. The molecule further yielded an IC50 in series [3] of 0.476 ± 0.038 µM.

As for `C[C@H](NCc1ccc(OCc2cccc(F)c2)cc1)C(N)=O` [safinamide, reference compound], the “effect of 30 min preincubation with enzyme on hMAO B inhibition” value in series [4] was “did not show differences between experiments with and without the preincubation”.

`CC1(C)CCCN(CCCCCOc2ccc(C(C)(C)C)cc2)C1.O=C(O)C(=O)O` [Compound 18, 1-(5-(4-tert-Butylphenoxy)pentyl)-3,3-dimethylpiperidine hydrogen oxalate]: the melting point lay within 150 to 153 °C. Further, in series [1], the IC50 was over 10 µM and the inhibition at 10 µM amounted to 19%. The molecule also displayed a Ki in series [2] of 3540 nM.

In the case of `CC(C)(C)c1ccc(OCCCN2CCCCCC2)cc1.O=C(O)C(=O)O` [Compound 28, 1-(3-(4-tert-Butylphenoxy)propyl)-azepane hydrogen oxalate], the melting point lay within 138 to 140 °C. Also, in series [1], the IC50 was over 10 µM. The affinity in series [2] corresponds to a Ki of 111 nM. In series [3], this molecule displayed an IC50 of 0.045 ± 0.004 µM.

As to `CC(C)(C)c1ccc(OCCCCN2CCCCCC2)cc1.O=C(O)C(=O)O` [Compound 29, 1-(4-(4-tert-Butylphenoxy)butyl)-azepane hydrogen oxalate], the melting point fell in the range of 149 to 151 °C. For the same molecule, in series [1], the IC50 was over 10 µM and the inhibition at 10 µM was 23%. For the same molecule, the Ki in series [2] amounted to 299 nM.
